Entries after “also recorded” stand apart in the source; their conditions may differ.

In series [1] the test system is elastin fibers. The note with it: in vitro; cited from earlier work.
The nature of series [2]: Clinical safety trial of hyaluronan aerosol in COPD patients: safety endpoints. It counts as in vivo, human. On the procedure: (§1) With this background, efforts continue to develop hyaluronan aerosol as a potential therapy for chronic obstructive pulmonary disease (COPD) related to alpha-1 antitrypsin deficiency (AATD) and not related to AATD. As part of that development this clinical safety trial was conducted in 11 COPD patients, 8 of whom received hyaluronan and 3 received placebo. The study protocol was conducted under IND number 70299. The primary aim of the study was to establish safety and to evaluate biomarker activity with respect to body and lung elastin degradation.
Eleven patients were recruited from 2 Centers: 9 patients from Research Associates in Tucson Ariz. and 2 patients from St. Luke's-Roosevelt Hospital Pulmonary Disease Center in New York. All patients fulfilled the diagnostic criteria of COPD with GOLD grades 2 and 3 with moderate airway obstruction (FEV1 above 40% of predicted) and at least a ten pack-year history of cigarette smoking. No patients were actively smoking at the time of recruitment and smoking cessation had occurred over one year prior to the study in all patients. Six patients were male […]. All were Caucasian. Three patients received placebo. Eight patients received hyaluronan CTX-100.
(§2) Each patient self-administered 0.01% hyaluronan from a vialed volume of 3 ml by aerosol from a compressor-delivered Pari nebulizer, morning and night for 14 days. The primary endpoints to assess safety were adverse events, oxygen saturation, spirometry, lung volumes, physical examination, vital signs, electrocardiogram and laboratory evaluations (CBC, serum chemistries and urinalysis). Additionally, desmosine and isodesmosine concentrations in sputum, plasma and urine were measured to assess a possible effect on elastin degradation (44, 45)

Series [3] concerns lung inflammation in a cystic fibrosis model. The note with it: cystic fibrosis model in mice; cited from earlier work.
The conditions of series [4]: therapy in cystic fibrosis; cited from earlier work.
The subject of series [5] is pulmonary emphysema induced by tobacco smoke. The note with it: mice exposed to tobacco smoke over a 6-month period; cited from earlier work.
For series [6], the system named is elastic fiber breakdown. Nature of the series: Illustrative examples of titrating aerosolized hyaluronan by sputum desmosine and isodesmosine level. In kind it is in vivo, human. As for the experimental part:
Examples of the use of the invention to titrate treatment with aerosolized hyaluronan are given below:
1) A patient with pulmonary emphysema is found to have an abnormally high level of sputum desmosine and isodesmosine (20 nanograms/gram protein compared to a normal level of less than 5 nanograms/g protein), and begins treatment with a dose of 0.1% hyaluronan that is inhaled for 20 minutes once daily in the morning. After 1 month, the sputum desmosine and isodesmosine level is measured and found to be 10 nanograms/g of protein in the sputum, which is more than twice the upper limit of normal. The patient is then switched to a twice daily inhalation for 20 minutes in the morning and evening. Two weeks later, the patient's sputum desmosine and isodesmosine level has fallen to 1 nanogram/g of protein, which is within the normal range. Their treatment is therefore left unchanged and sputum desmosine and isodesmsoine levels are measured at monthly intervals to ensure that the drug remains effective in preventing elastic fiber breakdown.
2) A patient with a history of smoking is tested for sputum desmosine and isodesmosine levels. They are found to have a mildly elevated level of 6 nanograms/g protein, and is placed on low dose hyaluronan, involving a single daily 20 minute inhalation of 0.05% hyaluronan. Two weeks later, their sputum desmosine and isodesmosine level is 1 nanogram/g protein, which is within the normal range. Based on this finding, their treatment is lowered to a 20 minute inhalation of hyaluronan every other day. Two weeks later, their sputum desmosine and isodesmsoine level has risen to 6 nanograms/g protein, which is above the upper limit of normal. Their treatment regimen is therefore returned to a 20 minute inhalation every day. Two weeks later, their sputum desmosine and isodesmosine level has fallen to 1 nanogram/g protein. Their treatment needs no further modification, and sputum desmosine and isodesmosine levels are measured at monthly intervals to ensure that the drug remains effective in preventing elastic fiber breakdown.

In series [7] the test system is emphysema induced by elastase enzymes. The note with it: animals; aerosol; cited from earlier work.
Series [8] relates to elastin degradation. Kind of series: Desmosine and isodesmosine concentrations in sputum, plasma and urine of COPD patients in the clinical trial. In kind it is in vivo, human. The note with it: 2 weeks of hyaluronan aerosol; for Levels of desmosine and isodesmosine in sputum: all 6 patients who provided sputum samples. As for the experimental part:
as §1, §2
Sputum samples collected from patients with emphysema and other inflammatory lung diseases are chemically degraded to separate the component amino acids of elastic fibers and other proteins. This procedure may involve hydrolyzing the sample with an acid such as HCl or a base such as NaOH, according to procedures well known to the art. The resulting hydrolysate is then measured for total elastin-specific amino acids, desmosine and isodesmosine, using a variety of procedures, including liquid chromatography or immunoassay, ultraviolet spectroscopy, fluorescence spectroscopy, mass spectrometry, or other spectroscopic techniques well-known to the art.
Desmosine and isodesmosine content of the sputum sample is then normalized to one or more parameters, such as total protein, albumin, or free amino acids, according to procedures well known to the art. The final value is expressed as total desmosine/isodesmosine per unit volume, protein, albumin, amino acids or other relevant parameter. Results obtained from the same patient over time may be used to determine variations in the amount of lung elastic fiber injury.

Where [9] appears, read: listed as aerosolized hyaluronan.

For the substance hyaluronan, in series [1], the “Elastase degradation of elastin fibers” value is listed as “block elastase degradation of elastin fibers in vitro”. The Adverse events result in series [2] (0.01% hyaluronan, 3 ml by aerosol, morning and night for 14 days) is “mild to moderate”. Further, the “Effect on EKG” value in series [2] (2 weeks of administration) is given as “no significant effect”. Also, the “Effect on routine laboratory procedures” value in series [2] (2 weeks of administration) is reported as “no significant effect”. In addition, the “Effect on spirometric indices” value in series [2] (2 weeks of administration) is recorded as “no significant effect”. Also, the Lung inflammation entry in series [3] is “reduce lung inflammation in a cystic fibrosis model in mice”. The “Tolerability of hypertonic saline” value in series [4] is reported as “improve tolerability of hypertonic saline”. Besides, the “Pulmonary emphysema induced by tobacco smoke” value in series [5] was “decrease the pulmonary emphysema induced in mice exposed to tobacco smoke”. The “Sputum desmosine and isodesmosine level” value in series [6] (patient with history of smoking, start 6, single daily 20 minute inhalation of 0.05% hyaluronan, two weeks later) is on record as 1 nanogram/g protein; in series [6] (patient with pulmonary emphysema, start 20, 0.1% hyaluronan inhaled 20 minutes once daily, after 1 month), 10 nanograms/g of protein; in series [6] (same patient, 0.1% hyaluronan, twice daily 20 minute inhalation, two weeks later), 1 nanogram/g of protein; in series [6] (same patient, 20 minute inhalation every other day, two weeks later), 6 nanograms/g protein; in series [6] (same patient, returned to 20 minute inhalation every day, two weeks later) it was 1 nanogram/g protein. Further, the “Severity of emphysema induced by elastase enzymes” value in series [7] is reported as “decrease the severity of emphysema induced by elastase enzymes”. For the same substance, the “Blood levels of desmosine and isodesmosine” value in series [8] is given as “significant reduction”; in series [8] (setting [9]), “statistically significant decline”. The results for the “Urine levels of desmosine and isodesmosine” value in series [8] and in series [8] (setting [9]) were “significant reduction” and “statistically significant decline”, respectively. Further, the “Levels of desmosine and isodesmosine in sputum” value was “statistically significant reduction; also recorded: Reductions” in series [8] and “statistically significant decline” in series [8] (setting [9]).
